Experimental data as given in ChEMBL document CHEMBL1201862, “PubChem BioAssay data set” (2004).
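Method: 48-hour compound exposure of cells in 96-well plates, five concentrations, linear interpolation of endpoints. The concentration for 50% growth inhibition is given as GI50.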 Activity calls are given as the source filed them. Rule as the data show it: active = GI50 up to about 1.1 µM and inactive = higher.

Experiments:
Experiment in all cases: DTP human tumour cell line panel, 48 h
[1] = test system: 786-0
[2] = test system: A498
[3] = test system: ACHN
[4] = test system: BT-549
[5] = test system: CAKI-1
[6] = test system: CCRF-CEM
[7] = test system: COLO 205
[8] = test system: DU-145
[9] = test system: EKVX
[10] = test system: HCT-116
[11] = test system: HCT-15
[12] = test system: HL-60
[13] = test system: HT-29
[14] = test system: Hs-578T
[15] = test system: IGROV-1
[16] = test system: K562
[17] = test system: KM12
[18] = test system: LOX IMVI
[19] = test system: M14
[20] = test system: MCF7
[21] = test system: MDA-MB-231
[22] = test system: MDA-MB-435
[23] = test system: MDA-N
[24] = test system: MOLT-4
[25] = test system: Malme-3M
[26] = test system: NCI-H226
[27] = test system: NCI-H23
[28] = test system: NCI-H460
[29] = test system: NCI/ADR-RES
[30] = test system: OVCAR-3
[31] = test system: OVCAR-5
[32] = test system: OVCAR-8
[33] = test system: PC-3
[34] = test system: RPMI-8226
[35] = test system: RXF 393
[36] = test system: SF-268
[37] = test system: SF-295
[38] = test system: SF-539
[39] = test system: SK-MEL-28
[40] = test system: SK-MEL-2
[41] = test system: SK-MEL-5
[42] = test system: SK-OV-3
[43] = test system: SN12C
[44] = test system: SNB-19
[45] = test system: SNB-75
[46] = test system: SW-620
[47] = test system: T47D
[48] = test system: TK-10
[49] = test system: U-251
[50] = test system: UACC-257
[51] = test system: UACC-62
[52] = test system: UO-31
[53] = test system: A549
[54] = test system: HCC 2998
[55] = test system: HOP-62
[56] = test system: NCI-H522
[57] = test system: OVCAR-4
[58] = test system: HOP-92

COc1ccc(C2OC(N)=C(C#N)C3=C2CCCC3C)cc1OC (stereo not given)
GI50 [1]: > 100 µM (inactive)
GI50 [2]: > 100 µM (inactive)
GI50 [3]: > 100 µM (inactive)
GI50 [4]: > 100 µM (inactive)
GI50 [5]: > 100 µM (inactive)
GI50 [6]: > 100 µM (inactive)
GI50 [7]: > 100 µM (inactive)
GI50 [8]: > 100 µM (inactive)
GI50 [9]: > 100 µM (inactive)
GI50 [10]: > 100 µM (inactive)
GI50 [11]: > 100 µM
GI50 [12]: > 100 µM (inactive)
GI50 [13]: > 100 µM (inactive)
GI50 [14]: > 100 µM (inactive)
GI50 [15]: > 100 µM (inactive)
GI50 [16]: > 100 µM (inactive)
GI50 [17]: > 100 µM (inactive)
GI50 [18]: > 100 µM (inactive)
GI50 [19]: > 100 µM (inactive)
GI50 [20]: > 100 µM (inactive)
GI50 [21]: > 100 µM (inactive)
GI50 [22]: > 100 µM (inactive)
GI50 [23]: > 100 µM (inactive)
GI50 [24]: > 100 µM (inactive)
GI50 [25]: > 100 µM (inactive)
GI50 [26]: > 100 µM (inactive)
GI50 [27]: > 100 µM (inactive)
GI50 [28]: > 100 µM (inactive)
GI50 [29]: > 100 µM (inactive)
GI50 [30]: > 100 µM (inactive)
GI50 [31]: > 100 µM (inactive)
GI50 [32]: > 100 µM (inactive)
GI50 [33]: > 100 µM (inactive)
GI50 [34]: > 100 µM (inactive)
GI50 [35]: > 100 µM (inactive)
GI50 [36]: > 100 µM (inactive)
GI50 [37]: > 100 µM (inactive)
GI50 [38]: > 100 µM (inactive)
GI50 [39]: > 100 µM (inactive)
GI50 [40]: > 100 µM (inactive)
GI50 [41]: > 100 µM (inactive)
GI50 [42]: > 100 µM (inactive)
GI50 [43]: > 100 µM (inactive)
GI50 [44]: > 100 µM (inactive)
GI50 [45]: 23.8 µM (inactive)
GI50 [46]: > 100 µM (inactive)
GI50 [47]: > 100 µM (inactive)
GI50 [48]: > 100 µM (inactive)
GI50 [49]: > 100 µM (inactive)
GI50 [50]: > 100 µM (inactive)
GI50 [51]: > 100 µM (inactive)
GI50 [52]: > 100 µM (inactive)

O=C1CC(O)c2c1csc2Br (stereo not given)
GI50 [1]: 17.9 µM (inactive)
GI50 [53]: 28.4 µM (inactive)
GI50 [3]: 21.9 µM (inactive)
GI50 [4]: 23.2 µM (inactive)
GI50 [5]: 37.8 µM (inactive)
GI50 [6]: 25.2 µM (inactive)
GI50 [7]: 41.3 µM (inactive)
GI50 [8]: 25.9 µM (inactive)
GI50 [9]: 48.2 µM (inactive)
GI50 [54]: 19.2 µM (inactive)
GI50 [10]: 18.5 µM (inactive)
GI50 [11]: 18.5 µM
GI50 [55]: 73.6 µM (inactive)
GI50 [13]: 33.3 µM (inactive)
GI50 [14]: 26.6 µM (inactive)
GI50 [15]: 13.5 µM (inactive)
GI50 [16]: 25.6 µM (inactive)
GI50 [17]: 18.7 µM (inactive)
GI50 [18]: 16.4 µM (inactive)
GI50 [19]: 18.2 µM (inactive)
GI50 [20]: 19.8 µM (inactive)
GI50 [21]: 23.8 µM (inactive)
GI50 [22]: 18.8 µM (inactive)
GI50 [23]: 22.5 µM (inactive)
GI50 [24]: 20.3 µM (inactive)
GI50 [25]: 30.8 µM (inactive)
GI50 [27]: 21.9 µM (inactive)
GI50 [28]: 25.7 µM (inactive)
GI50 [56]: 15.5 µM (inactive)
GI50 [29]: 20.7 µM (inactive)
GI50 [30]: 19.3 µM (inactive)
GI50 [57]: 31.6 µM (inactive)
GI50 [31]: > 100 µM (inactive)
GI50 [32]: 23.3 µM (inactive)
GI50 [33]: 32.4 µM (inactive)
GI50 [34]: 14.3 µM (inactive)
GI50 [35]: 17.3 µM (inactive)
GI50 [36]: 27.4 µM (inactive)
GI50 [37]: 60.7 µM (inactive)
GI50 [39]: 17.8 µM (inactive)
GI50 [40]: 34.2 µM (inactive)
GI50 [41]: > 100 µM (inactive)
GI50 [42]: 53.8 µM (inactive)
GI50 [43]: 20.7 µM (inactive)
GI50 [44]: 34.2 µM (inactive)
GI50 [45]: 26.4 µM (inactive)
GI50 [46]: 15.3 µM (inactive)
GI50 [47]: 23.7 µM (inactive)
GI50 [48]: 8.97 µM (inactive)
GI50 [49]: 19.8 µM (inactive)
GI50 [50]: 10.7 µM (inactive)
GI50 [51]: 22.7 µM (inactive)
GI50 [52]: 19.8 µM (inactive)

COc1cc(/C=C2/SC(c3ccccc3)N(c3cccc([N+](=O)[O-])c3)C2=O)cc(OC)c1OC (stereo not given)
GI50 [1]: > 100 µM (inactive)
GI50 [2]: > 100 µM (inactive)
GI50 [53]: > 100 µM (inactive)
GI50 [3]: > 100 µM (inactive)
GI50 [4]: > 100 µM (inactive)
GI50 [5]: > 100 µM (inactive)
GI50 [6]: 22.2 µM (inactive)
GI50 [7]: > 100 µM (inactive)
GI50 [8]: > 100 µM (inactive)
GI50 [9]: > 100 µM (inactive)
GI50 [54]: > 100 µM (inactive)
GI50 [10]: 61.4 µM (inactive)
GI50 [11]: > 100 µM
GI50 [12]: 60.8 µM (inactive)
GI50 [55]: > 100 µM (inactive)
GI50 [58]: > 100 µM (inactive)
GI50 [14]: > 100 µM (inactive)
GI50 [16]: > 100 µM (inactive)
GI50 [17]: 95.1 µM (inactive)
GI50 [18]: > 100 µM (inactive)
GI50 [19]: > 100 µM (inactive)
GI50 [20]: 46.2 µM (inactive)
GI50 [21]: > 100 µM (inactive)
GI50 [22]: 26.9 µM (inactive)
GI50 [23]: 25.1 µM (inactive)
GI50 [24]: > 100 µM (inactive)
GI50 [25]: 82.8 µM (inactive)
GI50 [26]: > 100 µM (inactive)
GI50 [27]: > 100 µM (inactive)
GI50 [28]: > 100 µM (inactive)
GI50 [56]: 60.5 µM (inactive)
GI50 [29]: > 100 µM (inactive)
GI50 [30]: > 100 µM (inactive)
GI50 [57]: > 100 µM (inactive)
GI50 [31]: > 100 µM (inactive)
GI50 [32]: > 100 µM (inactive)
GI50 [34]: > 100 µM (inactive)
GI50 [35]: > 100 µM (inactive)
GI50 [36]: > 100 µM (inactive)
GI50 [37]: > 100 µM (inactive)
GI50 [38]: > 100 µM (inactive)
GI50 [39]: 55.5 µM (inactive)
GI50 [40]: > 100 µM (inactive)
GI50 [41]: 50.1 µM (inactive)
GI50 [42]: > 100 µM (inactive)
GI50 [43]: > 100 µM (inactive)
GI50 [44]: > 100 µM (inactive)
GI50 [46]: 74.5 µM (inactive)
GI50 [47]: 97.5 µM (inactive)
GI50 [48]: > 100 µM (inactive)
GI50 [49]: > 100 µM (inactive)
GI50 [50]: > 100 µM (inactive)
GI50 [51]: 95.3 µM (inactive)
GI50 [52]: > 100 µM (inactive)

O=c1ccc2c(Cl)sc(Cl)c2[nH]1
GI50 [1]: > 100 µM (inactive)
GI50 [53]: > 100 µM (inactive)
GI50 [3]: > 100 µM (inactive)
GI50 [4]: > 100 µM (inactive)
GI50 [5]: > 100 µM (inactive)
GI50 [6]: > 100 µM (inactive)
GI50 [8]: > 100 µM (inactive)
GI50 [9]: 98.4 µM (inactive)
GI50 [54]: > 100 µM (inactive)
GI50 [10]: > 100 µM (inactive)
GI50 [11]: > 100 µM
GI50 [55]: > 100 µM (inactive)
GI50 [13]: > 100 µM (inactive)
GI50 [14]: 35.2 µM (inactive)
GI50 [15]: > 100 µM (inactive)
GI50 [16]: > 100 µM (inactive)
GI50 [17]: > 100 µM (inactive)
GI50 [18]: > 100 µM (inactive)
GI50 [19]: > 100 µM (inactive)
GI50 [20]: > 100 µM (inactive)
GI50 [21]: > 100 µM (inactive)
GI50 [22]: > 100 µM (inactive)
GI50 [23]: > 100 µM (inactive)
GI50 [24]: > 100 µM (inactive)
GI50 [25]: 43.8 µM (inactive)
GI50 [27]: > 100 µM (inactive)
GI50 [28]: > 100 µM (inactive)
GI50 [56]: 92.9 µM (inactive)
GI50 [29]: > 100 µM (inactive)
GI50 [30]: > 100 µM (inactive)
GI50 [57]: > 100 µM (inactive)
GI50 [31]: > 100 µM (inactive)
GI50 [32]: > 100 µM (inactive)
GI50 [33]: > 100 µM (inactive)
GI50 [34]: > 100 µM (inactive)
GI50 [35]: > 100 µM (inactive)
GI50 [36]: > 100 µM (inactive)
GI50 [37]: > 100 µM (inactive)
GI50 [39]: > 100 µM (inactive)
GI50 [40]: > 100 µM (inactive)
GI50 [42]: > 100 µM (inactive)
GI50 [43]: > 100 µM (inactive)
GI50 [44]: > 100 µM (inactive)
GI50 [45]: > 100 µM (inactive)
GI50 [46]: > 100 µM (inactive)
GI50 [47]: > 100 µM (inactive)
GI50 [48]: > 100 µM (inactive)
GI50 [49]: > 100 µM (inactive)
GI50 [50]: > 100 µM (inactive)
GI50 [51]: > 100 µM (inactive)
GI50 [52]: > 100 µM (inactive)
